In ChEMBL document CHEMBL1157284, “Role of glutamate and dopamine receptors in the psychopharmacological profile of the indole alkaloid psychollatine” (2006):
Activity calls are given as the source filed them. The rule behind the calls is not given here.

Legend:
Mus musculus [1] = assay: Protective effect against amphetamine-induced lethality in mouse at 4 mg/kg, ip administered 30 mins prior to amphetamine challenge measured after 24 hrs; type: functional, organism-based; set-up: dose 4 mg/kg
Mus musculus [2] = assay: Anticonvulsant activity against NMDA-induced seizures in mouse assessed as seizure latency at 0.3 mg/kg, ip administered 30 mins prior to NMDA challenge; type: functional; settings: route intraperitoneal
Mus musculus [3] = assay: Inhibition of apomorphine-induced climbing behavior in mouse at 0.2 mg/kg, ip administered 30 mins prior to apomorphine challenge; type: functional, organism-based; set-up: dose 0.2 mg/kg
Mus musculus [4] = assay: Anticonvulsant activity against NMDA-induced seizures in mouse assessed as seizure latency at 50 mg/kg, ip administered 30 mins prior to NMDA challenge; type: functional; settings: route intraperitoneal
Mus musculus [5] = assay: Anticonvulsant activity against NMDA-induced seizures in mouse assessed as seizure latency at 75 mg/kg, ip administered 30 mins prior to NMDA challenge; type: functional; settings: route intraperitoneal
Mus musculus [6] = assay: Anticonvulsant activity against NMDA-induced seizures in mouse assessed as seizure latency at 100 mg/kg, ip administered 30 mins prior to NMDA challenge; type: functional; settings: route intraperitoneal
Mus musculus [7] = assay: Antipsychotic activity against MK-801-induced hyperlocomotion in mouse at 7.5 mg/kg administered 30 mins prior to MK-801 challenge measured after 30 mins; type: functional, organism-based; set-up: dose 7.5 mg/kg
Mus musculus [8] = assay: Antipsychotic activity against MK-801-induced hyperlocomotion in mouse at 10 mg/kg administered 30 mins prior to MK-801 challenge measured after 30 mins; type: functional, organism-based; set-up: dose 10 mg/kg
Mus musculus [9] = assay: Antipsychotic activity against MK-801-induced hyperlocomotion in mouse at 100 mg/kg administered 30 mins prior to MK-801 challenge measured after 30 mins; type: functional, organism-based; set-up: dose 100 mg/kg
Mus musculus [10] = assay: Decrease in spontaneous locomotor activity in mouse at 7.5 mg/kg; type: functional, organism-based; set-up: dose 7.5 mg/kg
Mus musculus [11] = assay: Decrease in spontaneous locomotor activity in mouse at 10 mg/kg; type: functional, organism-based; set-up: dose 10 mg/kg
Mus musculus [12] = assay: Decrease in spontaneous locomotor activity in mouse at 100 mg/kg; type: functional, organism-based; set-up: dose 100 mg/kg
Mus musculus [13] = assay: Protective effect against amphetamine-induced lethality in mouse at 3 mg/kg, ip administered 30 mins prior to amphetamine challenge measured after 24 hrs; type: functional, organism-based; set-up: dose 3 mg/kg
Mus musculus [14] = assay: Protective effect against amphetamine-induced lethality in mouse at 10 mg/kg, ip administered 30 mins prior to amphetamine challenge measured after 24 hrs; type: functional, organism-based; set-up: dose 10 mg/kg
Mus musculus [15] = assay: Protective effect against amphetamine-induced lethality in mouse at 30 mg/kg, ip administered 30 mins prior to amphetamine challenge measured after 24 hrs; type: functional, organism-based; set-up: dose 30 mg/kg
Mus musculus [16] = assay: Protective effect against amphetamine-induced lethality in mouse at 100 mg/kg, ip administered 30 mins prior to amphetamine challenge measured after 24 hrs; type: functional, organism-based; set-up: dose 100 mg/kg
Mus musculus [17] = assay: Inhibition of apomorphine-induced climbing behavior in mouse at 10 mg/kg, ip administered 30 mins prior to apomorphine challenge; type: functional, organism-based; set-up: dose 10 mg/kg

CN(C)CCCN1c2ccccc2Sc2ccc(Cl)cc21
Activity (Mus musculus [1]): Active

CN1C(=O)CN=C(c2ccccc2)c2cc(Cl)ccc21
Activity (Mus musculus [1]): inactive

C[C@]12N[C@H](Cc3ccccc31)c1ccccc12.O=C(O)/C=C\C(=O)O [DIZOCILPINE MALEATE]
Activity (Mus musculus [2]): 360 s
Activity (Mus musculus [3]): Active

COC(=O)C1=CO[C@@H](O[C@H]2O[C@H](CO)[C@@H](O)[C@H](O)[C@H]2O)[C@@H]2C([C@@H]3NCCc4c3[nH]c3ccccc43)=CC[C@H]12 [PSYCHOLLATINE]
Activity (Mus musculus [4]): 850 s
Activity (Mus musculus [5]): 1020 s
Activity (Mus musculus [6]): 857.14 s
Activity (Mus musculus [7]): Active
Activity (Mus musculus [8]): Active
Activity (Mus musculus [9]): Active
Activity (Mus musculus [10]): inactive
Activity (Mus musculus [11]): inactive
Activity (Mus musculus [12]): Active
Activity (Mus musculus [13]): Active
Activity (Mus musculus [14]): Active
Activity (Mus musculus [15]): inactive
Activity (Mus musculus [16]): inactive
Activity (Mus musculus [17]): Active
